Laboratory results reported in patent US20230323279A1, “MUTANT ALGAE, METHOD OF PREPARATION AND APPLICATION THEREOF” (Reliance Industries Limited, priority 2022, published 2023).

Tests used:
Format in all cases: cell-based, Picochlorum
[1] = system: mutant algae (NCAR-1 and NCAR-2); assay: Photosynthetic efficiency/health; conditions: about 1 ppm, about 2 ppm and about 5 ppm, FIG. 6
From the text: FIG. 6 illustrate plots describing photosynthetic efficiency/health of- A) wild type of the algae (WT); B) mutant algae (NCAR-1); and C) mutant algae (NCAR-2) at different concentrations of Niclosamide (last day is 7th Day).
The improved photosynthetic efficiency of the mutant algae explicitly implies resistance of the mutant algae to salicylanilide based drug, such as Niclosamide and that the wild type of the algae is not resistant to the salicylanilide based drug.

mutant algae NCAR-2 = assay: Total intracellular ATP, bioluminescence (luciferase) assay
Method: (§1) Total intracellular ATP levels in wild type algae and the mutant algae were measured using molecular probes bioluminescence assay kit. The assay is based on luciferase’s requirement for ATP in producing light (emission maximum of about 560 nm at pH 7.8) from the reaction
(§2) Niclosamide was added to mid log cells (OD750 at about 0.3) of both wild type algae and mutant algae and samples (OD = 10^8 cells) were collected after about 12 hours for ATP measurement. About 1 ppm of Oligomycin A (inhibitor of ATP synthase) was used as positive control to inhibit ATP synthesis. intracellular ATP concentration in mutant algae and wild type of the algae in presence of Niclosamide was described in Table 3.

wild type algae (WT) = assay: as above; conditions: about 12 hours; for ATP conc. / bioluminescence reading, Average / bioluminescence reading, replicate 1 / bioluminescence reading, replicate 2: 1 ppm drug; for ATP depletion / lower ATP levels: about 1 ppm drug
Method: as §1, §2

mutant algae NCAR-1 = assay: as above
Method: as §1, §2

[2] = system: mutant algae (NCAR-1 and NCAR-2); assay: Volumetric productivity (AFDW mg/L/day); conditions: about 2 ppm and about 5 ppm; for volumetric productivity of mutant algae as compared to wild type of the algae: FIGS. 10-12
From the text: The term ‘productivity’ as used herein refers to amount of product the algae can produce under defined conditions. Productivity can be measured in grams of dry weight of algae. Alternatively, productivity can be measured in terms of the rate of production of a desirable product or product(s) such as lipid, protein, carbohydrate and/or any other biomolecule produced by the algae. The term ‘volumetric productivity’ refers to increase in biomass weight of algae/L/day.
Thus, clearly establishing that the mutant algae is resistant to salicylanilide based drug, such as Niclosamide as compared to wild type of the algae.

[3] = system: wild type of the algae (WT); assay: Growth of algae culture (OD at 750 nm)
From the text: FIG. 1 A) illustrates a plot describing no growth of wild type of the algae (WT) in presence of Niclosamide (OD at 750 nm); and B) depicts an image of cultures showing no growth of wild type algae in presence of Niclosamide.
(§3) FIG. 4 A) illustrates a plot describing comparative growth of wild type of the algae and mutant algae (NCAR-1 and NCAR-2) at different concentrations of Niclosamide; and B) depicts an image of cultures showing no growth of wild type algae (WT) and growth of mutant algae (NCAR-1 and NCAR-2) at 10 ppm of Niclosamide, respectively.

[4] = system: mutant algae (NCAR-1 and NCAR-2); assay: Growth of algae culture (OD at 750 nm); conditions: for growth of mutant algae as compared to wild type of the algae: about 2 ppm and about 5 ppm, FIGS. 7-9
From the text: as §3

WT cells = assay: Killing of WT cells on EMS exposure (mutagenesis); conditions: 0.6 M, about 1 hours, about 1 × 10^8 /ml cells
Method: About 1 × 10^8 /ml WT cells were treated with 0.6 M EMS for about 1 hours. […] The alive cells were allowed to recover in dark overnight and then in low light for about a week. Upon recovering the mutant algae population was exposed to about 0.5 ppm of Niclosamide and enriched in presence of Niclosamide for several generations. As the growth rate in the presence of Niclosamide increased, the selection pressure was increased to about 1 ppm and then to about 2 ppm of Niclosamide, respectively. The mutant pool was grown in presence of about 2 ppm Niclosamide (for about 300 generations, about 1 year) till the growth rates became constant. At this stage, FACS sorting of the Niclosamide resistant mutant pool was performed to get individual Niclosamide resistant mutant algae. About 100 individual mutants were isolated and were further checked for growth in the presence of about 2 ppm Niclosamide. The list was narrowed down to about 10 stable mutants after about 2 rounds of growth screening. Finally, after about 10 rounds of repeated growth screening in the presence of about 2 ppm Niclosamide, stable mutant algae (NCAR-1 & NCAR-2) were selected, based on the stable drug resistant phenotype and consistent growth & productivity.

[5] = NCAR-2, 1 ppm drug, about 12 hours
[6] = NCAR-1, 1 ppm drug, about 12 hours

## O=C(Nc1ccc([N+](=O)[O-])cc1Cl)c1cc(Cl)ccc1O [Niclosamide, niclosamide]
[1]
  photosynthetic efficiency/health of mutant algae as compared to wild type of the algae: improved photosynthetic efficiency/health
Mutant algae NCAR-2; [5]
  ATP conc.: 138.55 nM
  bioluminescence reading, Average: 839.5
  bioluminescence reading, replicate 1: 890
  bioluminescence reading, replicate 2: 789
Mutant algae NCAR-2; NCAR-2, after about 12 hours of drug addition
  ATP depletion: about 50%
Wild type algae (WT)
  ATP conc.: ~ 28.80 nM
  bioluminescence reading, Average: 174.5
  bioluminescence reading, replicate 1: 204
  bioluminescence reading, replicate 2: 145
  ATP depletion / lower ATP levels: about 90%
Mutant algae NCAR-1; [6]
  ATP conc.: 125.68 nM
  bioluminescence reading, Average: 761.5
  bioluminescence reading, replicate 1: 835
  bioluminescence reading, replicate 2: 688
Mutant algae NCAR-1; NCAR-1, after about 12 hours of drug addition
  ATP depletion: about 50%
[2]; about 1 ppm, FIG. 5
  volumetric productivity of mutant algae: equal to or greater than the volumetric productivity of the wild type of the algae in absence of Niclosamide
[2]
  volumetric productivity of mutant algae as compared to wild type of the algae: improved volumetric productivity
[3]; 10 ppm, FIG. 4B
  growth of wild type of the algae: no growth
[3]; in presence of drug, FIG. 1
  growth of wild type of the algae (OD at 750 nm): no growth
[4]; 10 ppm, FIG. 4B
  growth of mutant algae: evident growth
[4]
  growth of mutant algae as compared to wild type of the algae: improved growth

## CC[C@H]1/C=C/C=C/C[C@@H](C)[C@H](O)[C@@](C)(O)C(=O)[C@@H](C)[C@H](O)[C@@H](C)C(=O)[C@@H](C)[C@H](O)[C@@H](C)/C=C/C(=O)O[C@@H]2[C@H](C)[C@H](CC1)O[C@]1(CC[C@H](C)[C@H](C[C@@H](C)O)O1)[C@H]2C [Oligomycin, Oligomycin A]
Wild type algae (WT)
  ATP conc.: 178.49 nM
  bioluminescence reading, Average: 1081.5
  bioluminescence reading, replicate 1: 1181
  bioluminescence reading, replicate 2: 982
  ATP depletion / lower ATP levels: about 40%

## CCOS(C)(=O)=O [EMS, ethyl methanesulfonate]
WT cells
  killing of the WT cells: about 50%

## Cc1cc(C(C#N)c2ccc(Cl)cc2)c(Cl)cc1NC(=O)c1cc(I)cc(I)c1O (stereo not shown) [Closantel, closantel]
[2]
  volumetric productivity of mutant algae as compared to wild type of the algae: improved volumetric productivity
[4]
  growth of mutant algae as compared to wild type of the algae: improved growth

## O=C(Nc1cc(Cl)cc(Cl)c1O)c1c(O)c(Cl)cc(Cl)c1Cl [Oxyclozanide, oxyclozanide]
[2]
  volumetric productivity of mutant algae as compared to wild type of the algae: improved volumetric productivity
[4]
  growth of mutant algae as compared to wild type of the algae: improved growth

## O=C(Nc1ccc(Oc2ccc(Cl)cc2)c(Cl)c1)c1cc(I)cc(I)c1O [Rafoxanide, rafoxanide]
[2]
  volumetric productivity of mutant algae as compared to wild type of the algae: improved volumetric productivity
[4]
  growth of mutant algae as compared to wild type of the algae: improved growth
